Laboratory results: patent publication US20090196869A1, “ANTITUMOR COMBINATIONS CONTAINING TAXANE DERIVATIVES” (SANOFI-AVENTIS, priority 2006, published 2009)

What was measured:
[1] = tested on: Human breast carcinoma UISO-BCA-1; assay: Antitumor activity in Human Mammary UISO-BCA-1 xenografted in nude mice (3-arm dose-response); format: in vivo; details: for sensitivity of the UISO-BCA-1 xenograft to the agent: characterisation of the tumor model, monotherapy; for (T-C) days / CR / TFS d121 / log cell kill: acetocyclopropyl taxotere alone, day 17, 21, 25
Method: This efficacy may be quantified, for example, by the log10 cells killed, which is determined according to the following formula: […]
A product is considered to be active if log10 cells killed is greater than or equal to 0.7. A product is considered to be very active if log10 cells killed is greater than 2.8.
The combination, used at its own maximum tolerated dose, in which each of the constituents will be present at a dose generally not exceeding its maximum tolerated dose, will manifest therapeutic synergy when the log10 cells killed is greater than the value of the log10 cells killed of the best constituent when it is administered alone.
(§1) The animals subjected to the experiment, generally mice, are subcutaneously grafted bilaterally with 30 to 60 mg of a tumor fragment on day 0. The animals bearing tumors are mixed before being subjected to the various treatments and controls. In the case of treatment of advanced tumors, tumors are allowed to develop to the desired size, animals having insufficiently developed tumors being eliminated. The selected animals are distributed at random to undergo the treatments and controls. […] The different animal groups are weighed 3 or 4 times a week until the maximum weight loss is reached, and the groups are then weighed at least once a week until the end of the trial.
The tumors are measured 2 or 3 times a week until the tumor reaches approximately 2 g, or until the animal dies if this occurs before the tumor reaches 2 g. The animals are autopsied when sacrificed.
The tumor model used to evaluate each drug combination was selected, in general, on the basis of its responsiveness to each of the agents when used as monotherapy. Using i.v. intermittent schedules, full dose response trials were conducted for each single agent and each combination. In the present case, the selected tumor was a Human breast carcinoma UISO-BCA-1 derived from a malignant pleural effusion. The primary tumor was well-differentiated infiltrating ductal carcinoma of the breast. Radiotherapy post mastectomy was practiced. Three years after, chemotherapy to treat a left supraclavicular mass was done (10 courses with cytoxan, methotrexate, 5-Fu and Tamoxifen). […] This tumor model was established in nude mice from a 2.10^7 cell implant, and maintained by serial sc passage as tumor fragment.

[2] = Toxicity (drug deaths, body weight loss, highest non-toxic dose) in tumor-bearing nude mice; format: in vivo; details: for % bwl at nadir / Drug deaths: acetocyclopropyl taxotere alone, day 17, 21, 25
Method: as §1

[3] = iv 12.4 mg/kg/day (total 37.2 mg/kg)
[4] = iv 20.0 mg/kg/day (total 60.0 mg/kg)
[5] = iv 32.3 mg/kg/day (total 96.9 mg/kg)
[6] = iv 52.1 mg/kg/day (total 156.3 mg/kg)
[7] = single agent, iv day 17, 21, 25

SMILES: O=c1[nH]cc(F)c(=O)[nH]1 [5-Fluorouracil, reference compound]
- sensitivity of the UISO-BCA-1 xenograft to the agent [1]: sensitive

SMILES: CC(=O)O[C@H]1C(=O)[C@]23C[C@H]2C[C@H]2OC[C@@]2(OC(C)=O)[C@H]3[C@H](OC(=O)c2ccccc2)[C@]2(O)CC(OC(=O)[C@H](O)C(NC(=O)OC(C)(C)C)c3ccccc3)C(C)=C1C2(C)C (some centres unmarked) [acetocyclopropyl taxotere]
- (T-C) days [1, 3]: 1.8 days
- CR [1, 3]: 0/8
- TFS d121 [1, 3]: 0/8
- log cell kill [1, 3]: 0.1
- (T-C) days [1, 4]: 6.0 days
- CR [1, 4]: 0/8
- TFS d121 [1, 4]: 0/8
- log cell kill [1, 4]: 0.4
- (T-C) days [1, 5]: 20.8 days
- CR [1, 5]: 0/8
- TFS d121 [1, 5]: 0/8
- log cell kill [1, 5]: 1.3
- CR ([1]; iv 32.3 mg/kg/day (total 96.9 mg/kg), listed as acetyl cyclopropyl docetaxel): no regression
- sensitivity of the UISO-BCA-1 xenograft to the agent [1]: sensitive
- % bwl at nadir [2, 3]: 0.5%
- Drug deaths [2, 3]: 0/8
- % bwl at nadir [2, 4]: 0.5%
- Drug deaths [2, 4]: 0/8
- % bwl at nadir [2, 5]: 5.2%
- Drug deaths [2, 5]: 0/8
- % bwl at nadir [2, 6]: 7.2%
- Drug deaths [2, 6]: 2/8
- highest non-toxic dose [2, 7]: 32.3 mg/kg per injection
- highest non-toxic dose, total dose [2, 7]: 96.9 mg/kg

SMILES: O=P1(N(CCCl)CCCl)NCCCO1 (centres unmarked) [cyclophosphamide, reference compound]
- sensitivity of the UISO-BCA-1 xenograft to the agent [1]: poorly sensitive

SMILES: CC(=O)O[C@@]12CO[C@@H]1C[C@H](O)[C@@]1(C)C(=O)[C@H](O)C3=C(C)[C@@H](OC(=O)[C@H](O)[C@@H](NC(=O)OC(C)(C)C)c4ccccc4)C[C@@](O)([C@@H](OC(=O)c4ccccc4)[C@H]21)C3(C)C [docetaxel, reference compound]
- sensitivity of the UISO-BCA-1 xenograft to the agent [1]: resistant

SMILES: COc1cccc2c1C(=O)c1c(O)c3c(c(O)c1C2=O)C[C@@](O)(C(=O)CO)C[C@@H]3O[C@H]1C[C@H](N)[C@H](O)[C@H](C)O1 [doxorubicin, reference compound]
- sensitivity of the UISO-BCA-1 xenograft to the agent [1]: poorly sensitive

SMILES: CC[C@]1(O)C[C@H]2CN(CCc3c([nH]c4ccccc34)[C@@](C(=O)OC)(c3cc4c(cc3OC)N(C=O)[C@H]3[C@@](O)(C(=O)OC)[C@H](OC(C)=O)[C@]5(CC)C=CCN6CC[C@]43[C@@H]65)C2)C1 [vincristine, reference compound]
- sensitivity of the UISO-BCA-1 xenograft to the agent [1]: poorly sensitive
